From patent publication US11008317B2, “Triazolopyridine inhibitors of myeloperoxidase and/or EPX” (priority 2016, dated 2021)

Legend:
myeloperoxidase [1] = biological target: T1, myeloperoxidase (Homo sapiens, UniProt P05164); test: MPO Peroxidation Assay (Amplex Red Assay); assay type: biochemical; details: potency range class, read-out: Amplex Red Assay IC50 value
T1 sequence (P05164 49-745): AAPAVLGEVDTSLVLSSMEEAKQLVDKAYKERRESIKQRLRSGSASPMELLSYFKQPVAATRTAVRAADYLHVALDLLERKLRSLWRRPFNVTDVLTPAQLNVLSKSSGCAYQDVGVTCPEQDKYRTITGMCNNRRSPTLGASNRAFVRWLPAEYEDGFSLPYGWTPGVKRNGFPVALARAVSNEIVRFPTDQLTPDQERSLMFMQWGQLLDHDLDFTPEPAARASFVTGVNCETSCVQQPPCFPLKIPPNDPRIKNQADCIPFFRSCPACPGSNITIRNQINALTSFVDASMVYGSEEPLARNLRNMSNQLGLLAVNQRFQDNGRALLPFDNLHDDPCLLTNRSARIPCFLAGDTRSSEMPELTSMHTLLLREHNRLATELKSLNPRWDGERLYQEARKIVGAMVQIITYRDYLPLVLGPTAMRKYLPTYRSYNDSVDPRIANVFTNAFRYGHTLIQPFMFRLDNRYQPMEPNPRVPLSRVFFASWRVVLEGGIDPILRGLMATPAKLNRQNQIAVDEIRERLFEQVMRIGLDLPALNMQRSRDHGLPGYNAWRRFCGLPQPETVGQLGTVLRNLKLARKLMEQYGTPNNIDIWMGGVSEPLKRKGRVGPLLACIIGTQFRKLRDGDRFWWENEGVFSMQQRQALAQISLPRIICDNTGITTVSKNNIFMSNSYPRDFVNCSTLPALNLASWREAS

myeloperoxidase [2] = biological target: T1, myeloperoxidase; test: MPO Chlorination Assay (APF Assay); assay type: biochemical; details: potency range class, read-out: APF Assay IC50 value

IC50 (myeloperoxidase [1])	IC50 (myeloperoxidase [2])	SMILES
1000 to 10000 nM	1000 to 10000 nM	Cn1c(C[C@H](c2ccccc2)c2cc(N)nc3[nH]nnc23)nc2c(-c3ccccc3)cccc21 [Example 262, (R)-7-(2-(1-methyl-4-phenyl-1H-benzo[d]imidazol-2-yl)-1-phenylethyl)-3H-[1,2,3]triazolo [4,5-b]pyridin-5-amine]
101 to 999 nM	101 to 999 nM	Nc1cc([C@H](Cc2nc3ccc(Br)cc3s2)c2ccccc2)c2nn[nH]c2n1 [Example 263, (R)-7-(2-(6-bromobenzo [d]thiazol-2-yl)-1-phenylethyl)-3H-[1,2,3]triazolo[4,5-b] pyridin-5-amine]
